Literature values, collected in patent US20090017120A1, “Phase stable lecithin organogel composition” (Humco Holding Group, Inc., priority 2007, published 2009).

Details: 20% wt/vol pluronic gels, pH 7, 20° C.

time to 10% indomethacin degradation: 2.7 years
SMILES: COc1ccc2c(c1)c(CC(=O)O)c(C)n2C(=O)c1ccc(Cl)cc1 [indomethacin]
